Experimental findings from patent US4699907A, “4-morpholinyl-1H-indoles, pharmaceutical compositions and use” (Roussel Uclaf, priority 1985, dated 1987) are described below.

For one series, the system named is mice. Briefly: Acute toxicity study. The settings on record: oral administration to mice. In kind it is in vivo. On the procedure:
The lethal doses LDO of the different compounds tested were evaluated after oral administration to mice.

The next series concerns enolase γγ. Description: Test for enolase (kainic acid induced neuron lesions). The class given is in vivo. The settings on record: mice; 1 mg/kg intraperitoneally one hour before 35 mg/kg sub-cutaneous kainic acid.
The test system of the next series is hippocampus of the rat. Description: Test for neuron activation (accumulation of 2-deoxyglucose-6-phosphate). The class given is in vivo. The settings on record: 14C 2-deoxyglucose tracer dose. On the procedure:
C: Test for neuron activation
Neuron activation causes an increase in the corresponding metabolism which is shown by an increase in the consumption of glucose, a proof of energy consumption. This increase was evaluated by measuring the accumulation in the neuron cells of 2deoxyglucose-6-phosphate stemming from the conversion by hexokinase of 2-deoxyglucose ^14 C, an analogue of glucose, administered as a tracer dose, which used the same route of entry into the cell as glucose.

The test system of a further series is male rats. Description: Test of labyrinth in T after partial lesion of the septo hippocampic route. The class given is in vivo, rat. To be noted: electrolytic partial septo-hippocampic lesion, 20 mg/kg orally, 1 hour before test, days +5 to +8, compared to untreated animals. The method, then: A: Test of labyrinth in T after partial lesion of the septo hippocampic route
By means of an electrolytic partial lesion of neurons of the septo-hippocampic route, a disfunction of the cognitive faculty was provoked in male rats having acquired an apprenticeship in a labyrinth in the form of a T and then the speed of recovery of the disturbed memory faculties was measured. The animals got accustomed to their new environment on days -9 to -6 and rested on days -5 and -4. Their apprenticeship was carried out on days -3 to 0. At this time, the response of the rats was positive at 75-80%. On day 0, the lesion was carried out and the animals rested on days +1 to +3. The animals were tested on day +4 and at this time, only 50% of the responses were positive. From day +5 to +8, the rats were tested after being treated orally with the products under test 1 hour earlier. On day +11, the rats were tested without treatment. The percentage of positive responses of the treated animals were compared in relation to the untreated animals.

A value given as a limit tells only on which side of the number the result lay.

With `CN1C[C@H](CC#N)O[C@H](c2cccc3[nH]ccc23)C1` (relative stereo) [Example 5, (2SR, 6RS) 6-(1H-indol-4-yl)-4-methyl-2-morpholine acetonitrile], in the series on mice, the “LDO (maximum dose which does not cause mortality in 8 days)” value is at least 200 mg/kg. `CSC[C@H]1CN(C)C[C@@H](c2cccc3[nH]ccc23)O1` (relative stereo) [Example 4, 4-[(2R-cis) 4-methyl-6-[(methylthio)methyl]-2-morpholinyl]-1H-indole (dl)]: in the series on enolase γγ, the “decrease of the serous concentration of enolase γγ” value was found to be 34%. For the same molecule, the “accumulation of 2-deoxyglucose 6-P in the hippocampus” value with hippocampus of the rat is recorded as “increase in the accumulation of 2-deoxyglucose 6-P”. Further, the “LDO (maximum dose which does not cause mortality in 8 days)” value with mice amounted to 200 mg/kg. Besides, the “recovery of the memory functions” value with male rats is listed as “significantly improved the recovery of the memory functions”.

In the case of “N,N-diethyl 6-(1H-indol-4-yl)-4-methyl-2-morpholine carboxamide [Example 2]”, in the series on mice, the “LDO (maximum dose which does not cause mortality in 8 days)” value is at least 200 mg/kg. Still for that read-out and setting: under `CN1C[C@H](CO)O[C@H](c2cccc3[nH]ccc23)C1` (relative stereo) [Example 3, (2RS, 6RS) 6-(1H-indol-4-yl)-4-methyl-2-morpholine methanol] stands at least 400 mg/kg.
